In patent US8288559B2, “Luminogenic compounds and methods to detect cytochrome P450 3A enzymes” (Promega Corporation, priority 2008, dated 2012):
pKi: −log10 of the molar value.

Legend:
CYP3A4 versus CYP3A5 = biological target: T1, CYP3A4 versus CYP3A5 (Homo sapiens, UniProt P20815); experiment: Two-step luminescent P450 assay, recombinant enzyme panel screen; type: biochemical; conditions: human, recombinant human CYP3A4 and CYP3A5 microsomes (Supersomes), pH 7.4; FIG. 2 conditions: 50 μM compound, 1 pmole P450, 30 minutes; read-out: selectivity for CYP3A4 over CYP3A5
T1 construct: purchased Discovery Labware (Supersomes™); host or cells: insect cell expression system
T1 sequence (P20815 whole entry): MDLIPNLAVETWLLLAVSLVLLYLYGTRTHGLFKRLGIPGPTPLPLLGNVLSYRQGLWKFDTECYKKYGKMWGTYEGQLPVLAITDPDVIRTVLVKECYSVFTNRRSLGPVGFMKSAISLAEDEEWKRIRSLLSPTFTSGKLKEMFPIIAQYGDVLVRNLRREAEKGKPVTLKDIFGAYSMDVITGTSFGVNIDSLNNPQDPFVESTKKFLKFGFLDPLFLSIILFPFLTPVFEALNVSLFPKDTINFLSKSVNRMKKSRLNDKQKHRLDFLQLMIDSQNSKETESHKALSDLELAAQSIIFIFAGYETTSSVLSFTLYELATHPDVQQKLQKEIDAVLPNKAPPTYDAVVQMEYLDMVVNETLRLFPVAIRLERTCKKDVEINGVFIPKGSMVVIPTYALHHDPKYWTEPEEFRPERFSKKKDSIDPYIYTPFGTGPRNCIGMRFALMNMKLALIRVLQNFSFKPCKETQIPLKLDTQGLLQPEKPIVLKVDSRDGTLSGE
Protocol: (§1) For assays using recombinant P450 enzymes, a two-step scheme was followed whereby a luciferin derivative is oxidized by a P450 enzyme in a first step. In the second step, LDR is added to the P450 reaction mixture to stop the P450 activity and initiate a glow-style luciferase reaction whereby the luminescent signal strength is dependent on the amount of luciferin derivative oxidized by a P450 enzyme in the first step.
(§2) Reaction buffers for the P450 enzyme reaction of the first step varied depending on the P450 enzyme used. […] Unless otherwise indicated, the following buffer/enzyme combinations were used: 100 mM KPO4, pH 7.4 for CYP1A1, 1A2, 1B1, 2D6, 2E1, 3A5, 3A7, 2J2, 4F12, 19, and control samples; 50 mM KPO4, pH 7.4 for CYP2B6, 2C8, 2C19, 4F2, 4F3A, 4F3B; 25 mM KPO4, pH 7.4 for CYP2C9; 200 mM KPO4, pH 7.4 for CYP3A4; 100 mM TrisHCl, pH 7.5 for CYP2A6, 2C18, 4A11.
(§3) In FIG. 2 and FIGS. 8-19, luciferin derivatives were screened against a panel of recombinant human cytochrome P450 enzyme and control microsomes (Supersomes™). Concentrated stock solutions of the proluciferin acetal compounds were prepared as follows: 50 mM 3320, 3357, 3364, 3366 and 3391 in acetonitrile; 50 mM 3359, 3365, 3397 and 3403 in dimethyl sulfoxide (DMSO); 50 mM 3377 in H2O; 10 mM 3363 in H2O. Luciferin-PPXE, luciferin-PFBE and luciferin-BE were provided as a 50 mM solution in DMSO, 2 mM solution in 25 mM Tris, pH 8 and a 5 mM solution in 100 mM KPO4, pH 7.4, respectively. Assays were performed in opaque, white, polystyrene, flat-bottom 96-well plates.
(§4) In FIG. 20 using compound 3391, the method used in FIGS. 2 and 8-19 was used with the following changes: 0.1 picomole of each P450 enzyme or an equivalent volume of control membranes was used per reaction; for all reactions, 2 μM compound 3391 was used, 100 mM KPO4, pH 7.4 was used as the P450 reaction buffer, and the reaction was incubated for 10 minutes at 37° C.
(§5) Briefly, in a first step a proluciferin acetal of the present invention is oxidized initially by a P450 enzyme. The oxidized product is then thought to undergo a non-enzymatic conversion to a proluciferin ester. In a second step, the proluciferin ester is detected by adding a luciferase reaction mixture containing an esterase enzyme that converts the proluciferin ester to luciferin. The luciferin reacts with luciferase to produce an amount of light that is proportional to the amount of luciferin, and therefore to the amount of P450 enzyme activity. A sample that contains active P450 enzyme is typically compared to a control that is devoid of P450 activity.

CYP3A4 versus CYP3A7 = biological target: T2, CYP3A4 versus CYP3A7 (Homo sapiens, UniProt P24462); experiment: as above; type: biochemical; conditions: human, recombinant human CYP3A4 and CYP3A7 microsomes (Supersomes), pH 7.4; FIG. 2 conditions: 50 μM compound, 1 pmole P450, 30 minutes; read-out: selectivity for CYP3A4 over CYP3A7
T2 construct: purchased Discovery Labware (Supersomes™); host or cells: insect cell expression system
T2 sequence (P24462 whole entry): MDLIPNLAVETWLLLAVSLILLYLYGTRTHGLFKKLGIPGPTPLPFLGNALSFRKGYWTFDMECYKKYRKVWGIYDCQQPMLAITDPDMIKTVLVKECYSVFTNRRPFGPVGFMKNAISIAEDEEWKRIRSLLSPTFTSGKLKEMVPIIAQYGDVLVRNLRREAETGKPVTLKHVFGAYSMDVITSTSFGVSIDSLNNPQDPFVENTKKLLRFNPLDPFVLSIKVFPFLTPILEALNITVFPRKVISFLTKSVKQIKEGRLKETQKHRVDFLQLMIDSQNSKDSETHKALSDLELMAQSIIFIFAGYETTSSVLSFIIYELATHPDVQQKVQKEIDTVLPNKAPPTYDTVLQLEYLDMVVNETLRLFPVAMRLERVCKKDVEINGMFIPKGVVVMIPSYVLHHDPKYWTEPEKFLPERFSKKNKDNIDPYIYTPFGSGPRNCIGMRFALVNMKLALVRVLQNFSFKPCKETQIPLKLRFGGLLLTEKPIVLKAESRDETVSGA
Protocol: as §1, §2, §3, §4, §5

CYP3A5 = biological target: T3, CYP3A5 (Homo sapiens, UniProt P20815); experiment: as above; type: biochemical; conditions: FIG. 20 conditions: 2 μM compound, 0.1 picomole P450, 100 mM KPO4 pH 7.4, 10 minutes at 37° C.
T3 construct: purchased Discovery Labware (Supersomes™); host or cells: insect cell expression system
T3 sequence (P20815 whole entry): as the sequence (P20815 whole entry) above
Protocol: as §1, §2, §3, §4, §5

CYP3A7 = biological target: T4, CYP3A7 (Homo sapiens, UniProt P24462); experiment: as above; type: biochemical; conditions: FIG. 20 conditions: 2 μM compound, 0.1 picomole P450, 100 mM KPO4 pH 7.4, 10 minutes at 37° C.
T4 construct: purchased Discovery Labware (Supersomes™); host or cells: insect cell expression system
T4 sequence (P24462 whole entry): as the sequence (P24462 whole entry) above
Protocol: as §1, §2, §3, §4, §5

[1] = tested on: panel of 21 recombinant human cytochrome P450 enzymes; experiment: as above; type: biochemical
Protocol: as §1, §2
In FIG. 2 and FIGS. 8-19, luciferin derivatives were screened against a panel of recombinant human cytochrome P450 enzyme and control microsomes (Supersomes™). […]
Briefly, in a first step a proluciferin acetal of the present invention is oxidized initially by a P450 enzyme. […] In a second step, the proluciferin ester is detected by adding a luciferase reaction mixture containing an esterase enzyme that converts the proluciferin ester to luciferin. […]

CYP3A4 [2] = biological target: T5, CYP3A4 (Homo sapiens, UniProt P08684); experiment: Two-step luminescent P450 assay with luciferin derivatives, recombinant enzyme panel screen; type: biochemical; set-up: purchased Discovery Labware (Supersomes™); host or cells: insect cell expression system; conditions: for signal/background (S/B) ratio: CYP3A4 vs minus P450 control, 50 μM substrate, 1 pmole P450, 30 minutes at 37° C. (FIG. 2)
T5 sequence (P08684 whole entry): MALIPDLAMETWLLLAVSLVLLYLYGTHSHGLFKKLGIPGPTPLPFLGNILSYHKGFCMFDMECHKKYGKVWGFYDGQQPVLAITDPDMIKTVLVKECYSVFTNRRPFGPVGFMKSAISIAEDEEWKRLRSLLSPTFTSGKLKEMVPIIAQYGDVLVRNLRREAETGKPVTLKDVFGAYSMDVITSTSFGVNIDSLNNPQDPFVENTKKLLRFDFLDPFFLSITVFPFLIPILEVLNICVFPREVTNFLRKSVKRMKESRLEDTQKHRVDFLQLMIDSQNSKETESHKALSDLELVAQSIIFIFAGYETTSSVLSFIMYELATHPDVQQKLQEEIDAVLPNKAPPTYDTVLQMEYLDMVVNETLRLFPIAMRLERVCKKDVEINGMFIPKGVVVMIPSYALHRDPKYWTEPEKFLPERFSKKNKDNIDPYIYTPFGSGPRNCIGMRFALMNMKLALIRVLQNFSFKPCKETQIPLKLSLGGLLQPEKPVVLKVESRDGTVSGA
Protocol: as §1, §2, §3, §4, §5

CYP3A4 [3] = biological target: T5, CYP3A4; experiment: Concentration dependence of the CYP3A4 reaction with compound 3391; type: biochemical; set-up: purchased Discovery Labware (Supersomes™); host or cells: insect cell expression system
Protocol: The reactions were performed as described for FIGS. 3-6 except no inhibitors were present in the reactions, and the concentration of compound 3391 varied as indicated in FIG. 7. Signals are expressed as net relative luminescent units (RLU) calculated by subtracting the background RLU values of control reaction mixtures that lack CYP3A4 enzyme from the RLU values of the CYP3A4 reactions. The curve fit was performed with the program GraphPad Prism™.
FIG. 7 illustrates the concentration dependence of the CYP3A4 reaction with compound 3391. […] The data fit well to a substrate inhibition model (R^2=0.99) described by the equation Y=(Vmax·X)/(Km+X+(X·X/Ki)), where X=substrate concentration, Y=activity in relative light units (RLU), Km=[…] and Ki=the substrate inhibition constant.

CYP3A4 [4] = biological target: T5, CYP3A4; conditions: non-acetal CYP3A4 substrates, Cali et al. 2006; cited from earlier work
CYP3A4 [5] = biological target: T5, CYP3A4
Protocol: In FIGS. 3-6, CYP3A4 enzyme was co-expressed with cytochrome b5 and cytochrome P450 reductase in membrane fractions (Supersomes™). […] The reactions were initiated by addition of the NADPH regenerating system and incubated for 10 minutes at 37° C. After incubation, an equal volume (50 μl) of LDR was added and luminescence read 20 minutes later at room temperature on a Veritas™ luminometer. […] IC50 is the concentration of inhibitor that causes 50% inhibition of the reaction. Curve fits and IC50 calculations were performed with the program GraphPad Prism™.

CYP3A4 [6] = biological target: T5, CYP3A4; conditions: cited from earlier work

Compound: CC(C)OC(OC(C)C)C1CSC(c2nc3ccc(O)cc3s2)=N1 (stereo not drawn) [compound 3391]
- selectivity ratio at 30 min, 50 μM (CYP3A4 versus CYP3A5): 1.4
- selectivity ratio at 30 min, 50 μM (CYP3A4 versus CYP3A7): 8.5
- preference for CYP3A4 over CYP3A5 (CYP3A5): 8.0 fold
- preference for CYP3A4 over CYP3A7 (CYP3A7): 48.5 fold
- selectivity/preference for the CYP3A subfamily (CYP3A4, CYP3A5, CYP3A7) ([1]; 50 μM, one picomole enzyme, 30 minutes at 37° C.): excellent selectivity
- activities with the other P450 enzymes screened ([1]; FIG. 20 conditions: 2 μM compound, 0.1 picomole P450, 10 minutes): negligible
- fraction of compound oxidized during the incubation (CYP3A4 [2]; 0.1 picomoles of CYP3A4, 10 minute incubation, 2 μM): less than 10%
- signal/background (S/B) ratio (CYP3A4 [2]): 1699
- time over which product accumulation with CYP3A4 is linear (CYP3A4 [2]; FIG. 20 conditions): at least 10 minutes
- substrate concentration at maximal rate (CYP3A4 [3]; FIG. 7): 12.5 µM
- pKi (CYP3A4 [3]; substrate inhibition model fit, read-out: Ki (substrate inhibition constant)): 3.77

Compound: O=C(O)[C@H]1CSC(c2nc3ccc(OCc4ccccc4)cc3s2)=N1 [luciferin-BE, (S)-2-(6-(benzyloxy)benzo[d]thiazol-2-yl)-4,5-dihydrothiazole-4-carboxylic acid, reference compound]
- Km (CYP3A4 [4]): 50 µM
- signal/background (S/B) ratio (CYP3A4 [2]): 55

Compound: O=C(O)[C@H]1CSC(c2nc3ccc(OC(F)(F)c4c(F)c(F)c(F)c(F)c4F)cc3s2)=N1 [luciferin-PFBE, (S)-2-(6-(perfluorobenzyloxy)-benzo[d]thiazol-2-yl)-4,5-dihydrothiazole-4-carboxylic acid, reference compound]
- Km (CYP3A4 [4]): 50 µM
- signal/background (S/B) ratio (CYP3A4 [2]): 92

Compound: O=C(O)[C@H]1CSC(c2nc3ccc(OCc4cccc(CN5CCN(c6ccccc6)CC5)c4)cc3s2)=N1 [luciferin-PPXE, (S)-2-(6-(3-((4-phenylpiperazin-1-yl)methyl)benzyloxy)benzo[d]thiazol-2-yl)-4,5-dihydrothiazole-4-carboxylic acid, reference compound]
- Km (CYP3A4 [4]): 25 µM
- signal/background (S/B) ratio (CYP3A4 [2]): 56

Compound: Cc1ncc2n1-c1ccc(Cl)cc1C(c1ccccc1F)=NC2 [midazolam]
- effect on the CYP3A4/3391 reaction (CYP3A4 [5]): inhibited
- effect on CYP3A4 assay using luciferin-BE (CYP3A4 [6]): inhibited
- effect on CYP3A4 assay using luciferin-PFBE (CYP3A4 [6]): inhibited
- effect on CYP3A4 assay using luciferin-PPXE (CYP3A4 [6]): inhibited
